Measured values taken from patent US20250295626A1, “CARBON MONOXIDE-RELEASING MOLECULE (CORM) OR COMPOSITION THEREOF FOR USE IN THE TREATMENT OR THE PREVENTION OF AN INTESTINAL DYSBIOSIS IN A SUBJECT” (priority 2022, published 2025).

What was measured:
Format in all cases: in vivo, C57BL6 mice
[1] = Levels of blood carbon monoxide hemoglobin (COHb) after oral administration
Protocol: The levels of COHb (carbon monoxide bound to hemoglobin) were measured at different time points after oral administration of CORM-401 in two groups of eight-week-old male C57BL6 mice that were fed either a standard diet (SD) or a high fat diet (HFD) for 14 weeks (n=9-10 per group). CORM-401 was freshly prepared in phosphate buffer solution (PBS) and administered orally at a dose of 30 mg/kg=90 μmoles/kg (n=6) and COHb in blood was measured after 1, 6, 24 and 48 hours. • b) Results

[2] = CO accumulation in intestinal tissues after oral administration (hemoCD1 quantification); conditions: oral 30 mg/kg
Protocol: Eight-week-old male C57BL6 mice weighing approximately 25 g were treated with an oral administration of either CORM-401 (30 mg/kg) or PBS (control group) and then sacrificed after 1, 3, 6, 24 and 48 hours (n=6 per time point). Organs were collected to determine the levels of CO accumulation in different intestinal tissues following the two treatments. The body compartments where the intestinal microbiota is most likely to be present such as the caecum, caecum content, colon and faeces were analyzed. CO accumulation was quantified using the CO sensitive scavenger hemoCD1 as previously reported by the inventors such as in Mao et al, 2021 [10]; Minegishi et al, 2017 [11]. Briefly, fifty milligrams of tissue were homogenized in 0.5 ml PBS in the presence of hemoCD1 (2-10 μM) and sodium dithionite (1 mg). Tissue homogenates were first sonicated, then samples were centrifuged, and the supernatants filtered before measurements by UV-VIS absorption spectroscopy. The concentration of CO was calculated from the absorbances at 422 and 434 nm using a reported equation (Kitagishi et al, 2010; Braud et al 2018 [13]). • b) Results

[3] = test system: intestinal microbiota of HFD mice; assay: Abundance of bacterial species of intestinal microbiota in faeces (shotgun metagenomic/metatranscriptomic sequencing)
Protocol: Eight-week-old male C57BL6 mice weighing approximately 25 g were fed either a standard diet (SD), high fat diet (HFD) or HFD+CORM-401 for 14 weeks (n=9-10 per group). CORM-401 was prepared freshly in phosphate buffer solution (PBS) and administered orally to mice three times a week each time at a dose of (30 mg/kg=90 μmoles/kg) during the entire HFD regime. Faeces from the three groups of mice were then collected after the 14 week HFD regime for microbiota analysis before mice were sacrificed.
The stool samples DNA and RNA (n=3 per group) were extracted and the sequencing was carried out by a shotgun metagenomic/metatranscriptomic technique as previously described. Briefly, a pre-extraction step combining mechanical, enzymatic and chemical procedures was performed prior to extraction by means of a QIAsymphony PowerFecal Pro DNA Kit (QIAGEN). The extracts were used for DNA/RNA library preparation and determination of pair-end sequences using a NextSeq500 Instrument (Illumina). Fastq files were analysed by an in-house software MetaMIC (v2.2.0). The data were filtered based on quality (phred score) and the sequences were mapped against several custom databases, counted and collected in a separate Fastq file. Sequence counts were made for each bacterial species and compared to the environmental control. The number of sequences for each species was used to determine their relative abundance in each group of mice. • b) Results

[4] = HFD + CORM, faeces after 14 weeks, 30 mg/kg orally three times a week, average of 3
[5] = HFD mice treated 14 weeks, 30 mg/kg orally three times a week

Compound: CN(CC(=O)O)C(=S)[S-].[C-]#[O+].[C-]#[O+].[C-]#[O+].[C-]#[O+].[Mn] [CORM-401]
- COHb levels in blood ([1]; 1 hour after oral administration of 30 mg/kg, both SD-fed and HFD-fed mice): significantly increased
- Period over which blood COHb gradually decreased to baseline levels ([1]; oral 30 mg/kg, SD-fed and HFD-fed mice): 48 h
- Time at which the maximum CO content was reached ([2]; all compartments (caecum, caecum content, colon, faeces)): 6 h
- Time after which CO content returned to basal levels ([2]; all compartments): 48 h
- CO accumulation (time-dependent) ([2]; caecum tissue, caecum content, colon and faeces, vs PBS control): significantly accumulated
- Abundance of Adlercreutzia equolifaciens [3, 4]: 4445 number of sequences
- Abundance of Aerococcus viridans [3, 4]: 1650 number of sequences
- Abundance of Akkermansia muciniphila [3, 4]: 120300 number of sequences
- Abundance of Alistipes finegoldii [3, 4]: 6727 number of sequences
- Abundance of Alistipes shahii [3, 4]: 9490 number of sequences
- Abundance of Bacteroides caecimuris [3, 4]: 14812 number of sequences
- Abundance of Bacteroides cellulosilyticus [3, 4]: 246 number of sequences
- Abundance of Bacteroides dorei [3, 4]: 3093 number of sequences
- Abundance of Bacteroides fragilis [3, 4]: 3651 number of sequences
- Abundance of Bacteroides xylanisolvens [3, 4]: 1151 number of sequences
- Abundance of Barnesiella viscericola [3, 4]: 350 number of sequences
- Abundance of Blautia sp. YL58 [3, 4]: 934 number of sequences
- Abundance of Burkholderiales bacterium YL45 [3, 4]: 159 number of sequences
- Abundance of Carnobacterium divergens [3, 4]: 1726 number of sequences
- Abundance of Clostridioides difficile [3, 4]: 1101 number of sequences
- Abundance of Clostridium bolteae [3, 4]: 3559 number of sequences
- Abundance of Enterococcus faecalis [3, 4]: 4655 number of sequences
- Abundance of Enterococcus faecium [3, 4]: 7750 number of sequences
- Abundance of Erysipelotrichaceae bacterium I46 [3, 4]: 1788 number of sequences
- Abundance of Faecalibacterium prausnitzii [3, 4]: 3622 number of sequences
- Abundance of Faecalibaculum rodentium [3, 4]: 120296 number of sequences
- Abundance of Faecalitalea cylindroides [3, 4]: 1039 number of sequences
- Abundance of Flavonifractor plautii [3, 4]: 7720 number of sequences
- Abundance of Intestinimonas butyriciproducens [3, 4]: 2426 number of sequences
- Abundance of Lachnoclostridium phocaeense [3, 4]: 2366 number of sequences
- Abundance of Lachnoclostridium sp. YL32 [3, 4]: 14254 number of sequences
- Abundance of Lactobacillus acidipiscis [3, 4]: 630 number of sequences
- Abundance of Lactobacillus agilis [3, 4]: 2223 number of sequences
- Abundance of Lactobacillus animalis [3, 4]: 1355 number of sequences
- Abundance of Lactobacillus fermentum [3, 4]: 10256 number of sequences
- Abundance of Lactobacillus gallinarum [3, 4]: 928 number of sequences
- Abundance of Lactobacillus gasseri [3, 4]: 61826 number of sequences
- Abundance of Lactobacillus helveticus [3, 4]: 2955 number of sequences
- Abundance of Lactobacillus johnsonii [3, 4]: 162300 number of sequences
- Abundance of Lactobacillus murinus [3, 4]: 4440 number of sequences
- Abundance of Lactobacillus plantarum [3, 4]: 1011 number of sequences
- Abundance of Lactobacillus reuteri [3, 4]: 339700 number of sequences
- Abundance of Lactobacillus ruminis [3, 4]: 2160 number of sequences
- Abundance of Lactobacillus salivarius [3, 4]: 3546 number of sequences
- Abundance of Lactococcus garvieae [3, 4]: 3953 number of sequences
- Abundance of Lactococcus lactis [3, 4]: 642300 number of sequences
- Abundance of Lactococcus piscium [3, 4]: 4133 number of sequences
- Abundance of Libanicoccus massiliensis [3, 4]: 4193 number of sequences
- Abundance of Listeria monocytogenes [3, 4]: 2783 number of sequences
- Abundance of Mordavella sp. Marseille-P3756 [3, 4]: 1240 number of sequences
- Abundance of Muribaculum intestinale [3, 4]: 21500 number of sequences
- Abundance of Olsenella sp. Marseille-P2300 [3, 4]: 4915 number of sequences
- Abundance of Olsenella uli [3, 4]: 1483 number of sequences
- Abundance of Olsenella umbonata [3, 4]: 1620 number of sequences
- Abundance of Oscillibacter valericigenes [3, 4]: 1053 number of sequences
- Abundance of Parabacteroides goldsteinii [3, 4]: 43 number of sequences
- Abundance of Romboutsia ilealis [3, 4]: 21923 number of sequences
- Abundance of Roseburia intestinalis [3, 4]: 1190 number of sequences
- Abundance of Ruminiclostridium sp. KB18 [3, 4]: 18969 number of sequences
- Abundance of Streptococcus thermophilus [3, 4]: 7718 number of sequences
- Abundance of uncultured Firmicutes bacterium [3, 4]: 1355 number of sequences
- Change in the abundance of Alistipes fingoldii [3, 5]: marked increase
- Change in the abundance of Alistipes shahii [3, 5]: marked increase
- Change in the abundance of Olsenella uli [3, 5]: marked increase
- Change in the abundance of Olsenella umbonata [3, 5]: marked increase
- Change in the abundance of Romboutsia ilealis [3, 5]: decrease
- Rank of Akkermansia muciniphila in the intestinal bacteria profile [3, 5]: among the most dominant species
- Overall effect on the intestinal microbiota ([3]; HFD mice, oral administration): reshapes the intestinal microbiota HFD mice towards a healthy phenotype
